Results: patent US12171768B2, “IRAK4 degraders and uses thereof” (priority 2021, dated 2024)
“Also recorded” adds a separate entry of the source.

Tests used:
IRAK4 [1] = target: T1, IRAK4 (Canis lupus familiaris, UniProt A0A8I3S726); assay: In vitro IRAK4 degradation in dog PBMCs; assay type: cell-based; details: read-out: DC50, IRAK4 degradation
T1 construct: endogenous in cells; host or cells: dog PBMCs (A3); PBMCs and skin of dosed dogs (A12)
T1 sequence (A0A8I3S726 1-460): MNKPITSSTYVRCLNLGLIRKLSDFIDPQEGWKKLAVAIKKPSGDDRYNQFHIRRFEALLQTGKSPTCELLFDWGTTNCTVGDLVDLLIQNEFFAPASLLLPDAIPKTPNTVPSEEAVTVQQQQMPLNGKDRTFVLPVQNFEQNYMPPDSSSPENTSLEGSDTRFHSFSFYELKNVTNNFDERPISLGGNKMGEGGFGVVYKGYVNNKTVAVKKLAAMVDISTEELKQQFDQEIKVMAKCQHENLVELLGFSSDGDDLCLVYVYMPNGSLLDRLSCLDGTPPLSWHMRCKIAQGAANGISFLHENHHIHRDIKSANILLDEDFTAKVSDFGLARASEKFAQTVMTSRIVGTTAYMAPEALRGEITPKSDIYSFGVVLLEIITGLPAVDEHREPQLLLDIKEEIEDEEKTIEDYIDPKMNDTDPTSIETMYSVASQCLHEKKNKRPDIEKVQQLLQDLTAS

[2] = target: T2, breast cancer resistance protein (BCRP) (Homo sapiens, UniProt Q9UNQ0); assay: BCRP substrate and efflux inhibition in vitro; assay type: in vitro ADME
T2 sequence (Q9UNQ0 1-655): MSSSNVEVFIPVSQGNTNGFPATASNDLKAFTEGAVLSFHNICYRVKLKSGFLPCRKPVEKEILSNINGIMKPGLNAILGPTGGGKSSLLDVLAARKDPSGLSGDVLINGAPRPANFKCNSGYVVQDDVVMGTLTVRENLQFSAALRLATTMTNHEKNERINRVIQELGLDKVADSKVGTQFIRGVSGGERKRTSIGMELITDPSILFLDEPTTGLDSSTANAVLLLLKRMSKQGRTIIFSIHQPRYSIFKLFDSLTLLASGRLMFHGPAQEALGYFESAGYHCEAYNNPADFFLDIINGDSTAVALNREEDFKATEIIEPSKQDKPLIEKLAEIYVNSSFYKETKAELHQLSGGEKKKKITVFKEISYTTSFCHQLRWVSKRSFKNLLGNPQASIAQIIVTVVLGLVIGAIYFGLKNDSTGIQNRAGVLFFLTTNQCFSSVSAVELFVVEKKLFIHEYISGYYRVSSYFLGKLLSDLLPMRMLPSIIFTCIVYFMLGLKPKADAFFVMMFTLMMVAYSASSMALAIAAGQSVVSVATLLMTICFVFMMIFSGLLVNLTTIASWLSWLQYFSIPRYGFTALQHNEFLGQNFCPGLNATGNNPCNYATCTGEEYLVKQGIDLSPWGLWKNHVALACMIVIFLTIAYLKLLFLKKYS

IRAK4 [3] = assay: In vitro IRAK4 degradation in monkey PBMCs; assay type: cell-based
IRAK4 [4] = target: T3, IRAK4 (Rattus norvegicus, UniProt A0A8I6G1H3); assay: In vitro IRAK4 degradation in rat splenocytes; assay type: cell-based; details: read-out: DC50, IRAK4 degradation
T3 construct: endogenous in cells; host or cells: rat splenocytes
T3 sequence (A0A8I6G1H3 1-461): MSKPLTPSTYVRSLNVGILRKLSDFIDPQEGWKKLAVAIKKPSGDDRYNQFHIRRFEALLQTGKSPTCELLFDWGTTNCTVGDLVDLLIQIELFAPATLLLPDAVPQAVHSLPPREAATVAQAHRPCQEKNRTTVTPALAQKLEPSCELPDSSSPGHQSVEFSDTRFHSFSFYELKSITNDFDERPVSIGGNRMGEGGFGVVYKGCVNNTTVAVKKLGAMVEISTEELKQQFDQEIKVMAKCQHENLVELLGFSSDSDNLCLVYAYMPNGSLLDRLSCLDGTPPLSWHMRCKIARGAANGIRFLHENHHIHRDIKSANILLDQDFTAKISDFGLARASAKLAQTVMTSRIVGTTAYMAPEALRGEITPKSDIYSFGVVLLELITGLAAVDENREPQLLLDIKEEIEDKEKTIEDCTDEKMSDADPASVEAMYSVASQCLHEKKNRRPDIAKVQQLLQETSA

[5] = In vivo pharmacokinetic studies in rats, dogs and monkeys
[6] = Phase 1 MAD safety and tolerability; assay type: in vivo, human; details: multiple daily doses over 14 days up to 200 mg (MAD 4)
Description: Part B: Part B is a double-blind, randomized, placebo-controlled, MAD, sequential group study in 48 adult HVs, divided in 4 cohorts of 12 adult HVs in each cohort. One or more additional cohorts may be added, as needed.
All data will be fully listed.

[7] = system: R848- or LPS-mediated induction of pro-inflammatory cytokines in whole blood; assay: Phase 1 SAD ex vivo proinflammatory cytokine induction by R848 and LPS in whole blood; design: species or system human; details: for Mean maximum percent change from baseline, IFNγ / Mean maximum percent change from baseline, IL1β / Mean maximum percent change from baseline, IL6 / Mean maximum percent change from baseline, IL8 / Mean maximum percent change from baseline, IL10 / Mean maximum percent change from baseline, IL12 / Mean maximum percent change from baseline, IL17 / Mean maximum percent change from baseline, TNFα: Cohort 7
Permeability = assay type: in vitro ADME

Cn1c(=O)n([C@@H]2CCC(=O)NC2=O)c2cccc(C#CCOC3CCN(C[C@H]4CC[C@H](n5cc(NC(=O)c6cnn7ccc(N8C[C@H]9C[C@@H]8CO9)nc67)c(C(F)F)n5)CC4)CC3)c21 [Compound A, 5-((1R,4R)-2-oxa-5-azabicyclo[2.2.1]heptan-5-yl)-N-(3-(difluoromethyl)-1-((1r,4R)-4-((4-((3-(1-(2,6-dioxopiperidin-3-yl)-3-methyl-2-oxo-2,3-dihydro-1H-benzo[d]imidazol-4-yl)prop-2-yn-1-yl)oxy)piperidin-1-yl)methyl)cyclohexyl)-1H-pyrazol-4-yl)pyrazolo[1,5-a]pyrimidine-3-carboxamide]
DC50 (IRAK4 [1]): < 10 nM | BCRP efflux inhibition [2]: inhibited BCRP efflux | BCRP substrate [2]: substrate | DC50 (IRAK4 [3]): […] | DC50 (IRAK4 [4]): < 10 nM | Bioavailability [5]: low to moderate | Clearance [5]: moderate to high | Terminal half-life [5]: moderate | Volume of distribution at steady state [5]: high | Safety and tolerability [6]: safe and well-tolerated | Mean maximum ex vivo cytokine inhibition ([7]; 24-48 h post-dose, LPS or R848, whole blood): up to 97% | Mean maximum percent change from baseline, IFNγ ([7]; LPS, 24-48 hours): −42%^ | Mean maximum percent change from baseline, IL1β ([7]; LPS, 24-48 hours): −68%^1 | Mean maximum percent change from baseline, IL6 ([7]; LPS, 24-48 hours): −62%^1 | Mean maximum percent change from baseline, IL8 ([7]; LPS, 24-48 hours): −81%^1 | Mean maximum percent change from baseline, IL10 ([7]; LPS, 24-48 hours): −83%^1 | Mean maximum percent change from baseline, IL12 ([7]; LPS, 24-48 hours): −35%^2 | Mean maximum percent change from baseline, IL17 ([7]; LPS, 24-48 hours): −43%^2 | Mean maximum percent change from baseline, TNFα ([7]; LPS, 24-48 hours): −42%^2 | Mean maximum percent change from baseline, IFNγ ([7]; R848, 24-48 hours): −97%^2 | Mean maximum percent change from baseline, IL1β ([7]; R848, 24-48 hours): −92%^1 | Mean maximum percent change from baseline, IL6 ([7]; R848, 24-48 hours): −88%^1 | Mean maximum percent change from baseline, IL8 ([7]; R848, 24-48 hours): −54%^ | Mean maximum percent change from baseline, IL10 ([7]; R848, 24-48 hours): −89%^1 | Mean maximum percent change from baseline, IL12 ([7]; R848, 24-48 hours): −93%^1 | Mean maximum percent change from baseline, IL17 ([7]; R848, 24-48 hours): −79%^1 | Mean maximum percent change from baseline, TNFα ([7]; R848, 24-48 hours): −88%^2 | Permeability (Permeability): moderate; also recorded: medium
